Data from patent US6969702B2, “Compounds and methods for increasing neurogenesis” (priority 2002, dated 2005).
Like-named read-outs stand apart in the source and are kept apart here. Marks after values point to notes of the source that are not given here. Bridge positions count the residues as written; N and C are the ends. Square brackets hold non-standard residues; d marks the D form. Peptide text beside a SMILES is read from it. pGlu = O=C1CC[C@@H](C(=O)O)N1

Assays:
[1] = system: NFAT-Luciferace reporter (Ca^2+); conditions: Table 4; for NFAT Luciferace units: 24 hours after induction; for Fold Induction NFAT: vs vehicle
Adult neural stem cells = experiment: Flow cytometry for early neuronal marker Doublecortin; conditions: Table 6, 100 nM
[2] = system: mouse adult neural stem cells; experiment: ATP-assay: proliferation (ATP levels) of neurosphere-derived cells; conditions: for Fold Induction ATP: vs vehicle
[3] = system: cAMP activation in mouse adult neural stem cells; experiment: cAMP detection (HitHunter EFC Cyclic AMP Chemiluminescence Assay); conditions: Table 2
[4] = Table 4, concentration not given

## CC[C@H](C)[C@H](NC(=O)[C@H](Cc1ccc(O)cc1)NC(=O)[C@@H](NC(=O)[C@H](CCCNC(=N)N)NC(=O)[C@@H](N)CC(=O)O)C(C)C)C(=O)N[C@@H](Cc1cnc[nH]1)C(=O)N1CCC[C@H]1C(=O)N[C@@H](Cc1ccccc1)C(=O)O [Angiotensin II (human synthetic)]
[1]; concentration not given
  NFAT Luciferace units: 12.0 ± 3.7 Luciferace units
  Fold Induction NFAT: 2.1* fold
Adult neural stem cells; 4 days
  % Doublecortin-positive cells: 3.1%
Adult neural stem cells; vs EGF/FGF
  Fold Induction (Doublecortin-positive cells): 1.2 fold
[2]; [4]
  ATP (nM ATP/well): 11.7 ± 0.6 nM ATP/well
  Fold Induction ATP: 1.2* fold

## CC(C)C[C@H](NC(=O)CNC(=O)[C@H](C)NC(=O)[C@H](CC(C)C)NC(=O)[C@H](CCCNC(=N)N)NC(=O)[C@H](Cc1cnc[nH]1)NC(=O)[C@@H](NC(=O)[C@@H](N)C(C)C)[C@@H](C)O)C(=O)N[C@@H](CC(C)C)C(=O)N[C@@H](CO)C(=O)N[C@@H](CCCNC(=N)N)C(=O)N[C@@H](CO)C(=O)NCC(=O)NCC(=O)N[C@H](C(=O)N[C@H](C(=O)N[C@@H](CCCCN)C(=O)N[C@@H](CC(N)=O)C(=O)N[C@@H](CC(N)=O)C(=O)N[C@@H](Cc1ccccc1)C(=O)N[C@H](C(=O)N1CCC[C@H]1C(=O)N[C@H](C(=O)N[C@@H](CC(N)=O)C(=O)N[C@H](C(=O)NCC(=O)N[C@@H](CO)C(=O)N[C@@H](CCCCN)C(=O)N[C@@H](C)C(=O)N[C@@H](Cc1ccccc1)C(N)=O)C(C)C)[C@@H](C)O)C(C)C)C(C)C)C(C)C [CGRP (8-37)]
[1]; 15 nM
  Fold Induction NFAT: 1.3** fold
[2]; Table 4, 100 nM
  Fold Induction ATP: 1.2** fold

## CC[C@H](C)[C@H](NC(=O)[C@H](C)NC(=O)[C@H](CC(=O)O)NC(=O)[C@H](C)NC(=O)[C@@H](N)Cc1ccc(O)cc1)C(=O)N[C@@H](Cc1ccccc1)C(=O)N[C@H](C(=O)N[C@@H](CC(N)=O)C(=O)N[C@@H](CO)C(=O)N[C@@H](Cc1ccc(O)cc1)C(=O)N[C@@H](CCCNC(=N)N)C(=O)N[C@@H](CCCCN)C(=O)N[C@H](C(=O)N[C@@H](CC(C)C)C(=O)NCC(=O)N[C@@H](CCC(N)=O)C(=O)N[C@@H](CC(C)C)C(=O)N[C@@H](CO)C(=O)N[C@@H](C)C(=O)N[C@@H](CCCNC(=N)N)C(=O)N[C@@H](CCCCN)C(=O)N[C@@H](CC(C)C)C(=O)N[C@@H](CC(C)C)C(=O)N[C@@H](CCC(N)=O)C(=O)N[C@@H](CC(=O)O)C(=O)N[C@H](C(=O)N[C@@H](CCSC)C(=O)N[C@@H](CO)C(=O)N[C@@H](CCCNC(=N)N)C(=O)N[C@@H](CCC(N)=O)C(=O)N[C@@H](CCC(N)=O)C(=O)NCC(=O)N[C@@H](CCC(=O)O)C(=O)N[C@@H](CO)C(=O)N[C@@H](CC(N)=O)C(=O)N[C@@H](CCC(N)=O)C(=O)N[C@@H](CCC(=O)O)C(=O)N[C@@H](CCCNC(=N)N)C(=O)NCC(=O)N[C@@H](C)C(=O)N[C@@H](CCCNC(=N)N)C(=O)N[C@@H](C)C(=O)N[C@@H](CCCNC(=N)N)C(=O)N[C@@H](CC(C)C)C(N)=O)[C@@H](C)CC)C(C)C)[C@@H](C)O [Growth Hormone Releasing Factor]
[1]; 15 nM
  NFAT Luciferace units: 4.5 ± 0.6 Luciferace units
[2]; Table 4, 10 nM
  ATP (nM ATP/well): 12.6 ± 0.9 nM ATP/well

## CC[C@H](C)[C@H](NC(=O)[C@@H](NC(=O)[C@H](CC(=O)O)NC(=O)[C@H](CCC(N)=O)NC(=O)[C@H](Cc1c[nH]cn1)NC(=O)[C@@H]1CSSC[C@H](N)C(=O)N[C@@H](CO)C(=O)N[C@H]2CSSC[C@H](NC(=O)[C@H](CCC(=O)O)NC(=O)[C@H](CCCCN)NC(=O)[C@H](CC(=O)O)NC(=O)[C@H]([C@@H](C)O)NC(=O)[C@H](CCSC)NC(=O)[C@H](CC(=O)O)NC(=O)[C@H](CCCCN)NC2=O)C(=O)N[C@@H](CC(C)C)C(=O)N[C@@H](Cc2ccc(O)cc2)C(=O)N[C@@H](Cc2ccccc2)C(=O)N1)C(C)C)C(=O)N[C@@H](Cc1c[nH]c2ccccc12)C(=O)O [Sarafotoxin S6b] (H-CSCKDMTDKECLYFCHQDVIW-OH; disulfide 1-15, 3-11 (inferred); N-terminus and C-terminus assumed)
[3]; 100 nM (cAMP concentration)
  cAMP (pmol/well): 0.43 ± 0.22 pmol/well
[1]; 100 nM
  NFAT Luciferace units: 13.4 ± 7.0 Luciferace units
[2]; Table 2, 100 nM, 4 days
  ATP (nM ATP/well): 43.0 ± 7.8 nM ATP/well
[2]; Table 4, 100 nM
  ATP (nM ATP/well): 43.0 ± 7.8 nM ATP/well

## CC[C@H](C)[C@H](NC(=O)[C@@H](NC(=O)[C@H](CC(=O)O)NC(=O)[C@H](CCC(N)=O)NC(=O)[C@H](Cc1c[nH]cn1)NC(=O)[C@@H]1CSSC[C@H](N)C(=O)N[C@@H]([C@@H](C)O)C(=O)N[C@H]2CSSC[C@H](NC(=O)[C@H](CCC(=O)O)NC(=O)[C@H](CCC(=O)O)NC(=O)[C@H](CC(=O)O)NC(=O)[C@H]([C@@H](C)O)NC(=O)[C@H](CCSC)NC(=O)[C@H](CC(=O)O)NC(=O)[C@H](CC(N)=O)NC2=O)C(=O)N[C@@H](CC(C)C)C(=O)N[C@@H](CC(N)=O)C(=O)N[C@@H](Cc2ccccc2)C(=O)N1)C(C)C)C(=O)N[C@@H](Cc1c[nH]c2ccccc12)C(=O)O [Sarafotoxin S6c]
[3]; 10 nM (cAMP concentration)
  cAMP (pmol/well): 0.21 ± 0.03 pmol/well
[1]; 1 nM
  NFAT Luciferace units: 8.3 ± 2.0 Luciferace units
[2]; Table 2, 10 nM, 4 days
  ATP (nM ATP/well): 39.9 ± 6.6 nM ATP/well
[2]; Table 4, 1 nM
  ATP (nM ATP/well): 41.6 ± 4.8 nM ATP/well

## CSCC[C@H](NC(=O)[C@H](CC(C)C)NC(=O)[C@@H]1CCCN1C(=O)[C@H](Cc1ccccc1)NC(=O)[C@H](Cc1ccccc1)NC(=O)[C@@H]1CCC(=O)N1)C(N)=O [Septide] ([pGlu]FFPLM-NH2; C-terminus assumed)
[1]; 100 nM
  NFAT Luciferace units: 3.7 ± 0.9 Luciferace units
[2]; Table 4, 100 nM
  ATP (nM ATP/well): 25.1 ± 3.1 nM ATP/well

## CSCC[C@H](NC(=O)[C@H](C)NC(=O)[C@@H]1CCCN1C(=O)[C@H](CC(N)=O)NC(=O)[C@H](CO)NC(=O)[C@H](CC(N)=O)NC(=O)[C@H](C)NC(=O)[C@@H](N)CO)C(=O)N[C@@H](C)C(=O)N1CCC[C@H]1C(=O)N[C@@H](CCCNC(=N)N)C(=O)N[C@@H](CCC(=O)O)C(=O)N[C@@H](CCCNC(=N)N)C(=O)N[C@@H](CCCCN)C(=O)N[C@@H](C)C(=O)NCC(=O)N[C@H]1CSSC[C@@H](C(=O)O)NC(=O)[C@H](CO)NC(=O)[C@H]([C@@H](C)O)NC(=O)[C@H](Cc2ccccc2)NC(=O)[C@H]([C@@H](C)O)NC(=O)[C@H](CCCCN)NC(=O)[C@H](Cc2c[nH]c3ccccc23)NC(=O)[C@H](Cc2ccccc2)NC(=O)[C@H](Cc2ccccc2)NC(=O)[C@H](CC(N)=O)NC(=O)[C@H](CCCCN)NC1=O [Somatostatin-28]
[1]; 100 nM
  NFAT Luciferace units: 3.0 ± 0.4 Luciferace units
  Fold Induction NFAT: 1.6* fold
[2]; Table 4, 10 nM
  ATP (nM ATP/well): 17.1 ± 1.5 nM ATP/well
  Fold Induction ATP: 1.2* fold
